Reference: US6245817A, “NPY5 receptor antagonists and methods for using same” (Bayer Corporation, priority 1999, dated 2001)

Legend:
Rat NPY5 Receptor = biological target: T1, Rat NPY5 Receptor (Rattus norvegicus, UniProt Q63634); assay: Rat NPY5 Receptor Binding Assay; settings: [125I]PYY; read-out: rNPY5 IC50
T1 sequence (Q63634 1-445): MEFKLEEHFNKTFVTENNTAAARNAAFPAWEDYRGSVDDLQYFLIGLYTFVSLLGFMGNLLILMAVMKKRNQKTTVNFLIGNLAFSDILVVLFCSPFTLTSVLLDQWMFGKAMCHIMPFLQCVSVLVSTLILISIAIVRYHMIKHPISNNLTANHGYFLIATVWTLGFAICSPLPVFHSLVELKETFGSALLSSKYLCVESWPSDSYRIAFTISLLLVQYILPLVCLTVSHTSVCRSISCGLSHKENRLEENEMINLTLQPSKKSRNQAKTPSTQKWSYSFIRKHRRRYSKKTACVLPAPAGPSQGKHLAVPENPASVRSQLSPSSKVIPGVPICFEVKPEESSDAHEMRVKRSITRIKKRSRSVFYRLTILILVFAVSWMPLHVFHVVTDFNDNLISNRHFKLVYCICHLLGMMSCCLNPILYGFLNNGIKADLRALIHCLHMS

Human NPY5 Receptor = biological target: T2, Human NPY5 Receptor (Homo sapiens, UniProt Q15761); assay: Human NPY5 Receptor Binding Assay; settings: [125I]PYY; read-out: hNPY5 IC50
T2 sequence (Q15761 1-445): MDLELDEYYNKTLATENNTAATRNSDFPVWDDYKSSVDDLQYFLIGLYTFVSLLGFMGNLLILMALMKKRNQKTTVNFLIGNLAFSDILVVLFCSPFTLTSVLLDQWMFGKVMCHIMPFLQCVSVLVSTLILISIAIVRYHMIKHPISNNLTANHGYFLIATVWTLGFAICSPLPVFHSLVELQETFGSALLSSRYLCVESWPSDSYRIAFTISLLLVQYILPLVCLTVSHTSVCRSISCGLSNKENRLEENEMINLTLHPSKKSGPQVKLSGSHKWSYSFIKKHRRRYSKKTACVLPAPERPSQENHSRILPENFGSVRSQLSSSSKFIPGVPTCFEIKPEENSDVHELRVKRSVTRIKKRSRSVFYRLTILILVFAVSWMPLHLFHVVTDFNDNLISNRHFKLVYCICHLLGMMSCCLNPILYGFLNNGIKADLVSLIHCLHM

IC50 (Rat NPY5 Receptor) | IC50 (Human NPY5 Receptor) | SMILES
310 nM | 340 nM | Nc1cccc(SCC(=O)Nc2ccc(C(=O)c3ccccc3)cc2)c1 [Compound 102, 2-(3-Amino-phenylsulfanyl)-N-(4-benzoyl-phenyl)-acetamide]
370 nM | 610 nM | O=C(CSC1CCCC1)Nc1ccc(C(=O)c2ccccc2)cc1 [Compound 109, N-(4-Benzoyl-phenyl)-2-cyclopentylsulfanyl-acetamide]
340 nM | 290 nM | O=C(CSCc1ccco1)Nc1ccc(C(=O)c2ccccc2)cc1 [Compound 110, N-(4-Benzoyl-phenyl)-2-(furan-2-ylmethylsulfanyl)-acetamide]
570 nM | 1400 nM | O=C(CSc1nnc(-c2ccco2)[nH]1)Nc1ccc(C2CCCCC2)cc1 [Compound 111, N-(4-Cyclohexyl-phenyl)-2-(5-furan-2-yl-4H-[1,2,4]triazol-3-ylsulfanyl)-acetamide]
390 nM | 900 nM | Cn1c(CO)cnc1SCC(=O)Nc1ccc(C2CCCCC2)cc1 [Compound 114, N-(4-Cyclohexyl-phenyl)-2-(5-hydroxymethyl-1-methyl-1H-imidazol-2-ylsulfanyl)-acetamide]
360 nM | 900 nM | COC(=O)c1cnc(SCC(=O)Nc2ccc(C3CCCCC3)cc2)n1C [Compound 115]
2000 nM | 1300 nM | O=C(CSc1nnc(NC2CCCCC2)s1)Nc1ccc(C2CCCCC2)cc1 [Compound 116]
1500 nM | 630 nM | CSc1sc(-c2nnc(SCC(=O)Nc3ccc(C(=O)c4ccccc4)cc3)n2C)c2c1C=CCC2 [Compound 119]
530 nM | 1300 nM | COc1ccc(-c2nnc(SCC(=O)Nc3ccc(C(=O)c4ccccc4)cc3)n2-c2cccc(C(F)(F)F)c2)cc1 [Compound 120, N-(4-Benzoyl-phenyl)-2-(5-(4-methoxy-phenyl)-4-(3-trifluoromethyl-phenyl)-4H-[1,2,4]triazol-3-ylsulfanyl]-acetamide]

Continued, compound first:

SMILES | IC50 (Rat NPY5 Receptor) | IC50 (Human NPY5 Receptor)
O=C(CSc1nc(-c2ccccc2)no1)Nc1ccc(C2CCCCC2)cc1 [Compound 90, N-(4-Cyclohexyl-phenyl)-2-(3-phenyl-[1,2,4]oxadiazol-ylsulfanyl)-acetamide] | 340 nM | 260 nM
Cc1nnc(SCC(=O)Nc2ccc(C3CCCCC3)cc2)s1 [Compound 91, N-(4-Cyclohexyl-phenyl)-2-(5-methyl [1,3,4]thiadiazol-2-ylsulfanyl)-acetamide] | 84 nM | 80 nM
O=C(CSc1nnnn1-c1ccc(O)cc1)Nc1ccc(C2CCCCC2)cc1 [Compound 92, N-(4-Cyclohexyl-phenyl)-2-[1-(4-hydroxy-phenyl)-1H-tetrazo-ylsulfanyl]-acetamide] | 72 nM | 81 nM
O=C(CSc1nnc(-c2ccccc2)o1)Nc1ccc(C2CCCCC2)cc1 [Compound 94, N-(4-Cyclohexyl-phenyl)-2-(5-phenyl-[1,3,4]oxadiazo-2-ylsulfanyl)-acetamide] | 1200 nM | 670 nM
O=C(CSCc1cccc(CS)c1)Nc1ccc(C2CCCCC2)cc1 [Compound 96, N-(4-Cyclohexyl-phenyl)-2-(3-mercaptomethyl-benzylsulfanyl)-acetamide] | 610 nM | 850 nM
Nc1ccccc1SCC(=O)Nc1ccc(C2CCCCC2)cc1 [Compound 97, 2-(2-Amino-phenylsulfanyl)-N-(4-cyclohexyl-phenyl)-acetamide] | 90 nM | 110 nM
Nc1cccc(SCC(=O)Nc2ccc(C3CCCCC3)cc2)c1 [Compound 98, 2-(3-Amino-phenylsulfanyl)-N-(4-cyclohexyl-phenyl)-acetamide] | 290 nM | 320 nM
Nc1ccc(SCC(=O)Nc2ccc(C3CCCCC3)cc2)cc1 [Compound 99, 2-(4-Amino-phenylsulfanyl)-N-(4-cyclohexyl-phenyl)-acetamide] | 510 nM | 690 nM
O=C(CSCc1cccc(CS)c1)Nc1ccc(C(=O)c2ccccc2)cc1 [Compound 101, N-(4-Benzoyl-phenyl)-2-(3-mercaptomethyl-benzylsulfanyl)-acetamide] | 1500 nM | 1400 nM
